Data reported in ChEMBL document CHEMBL5230089, “Small-Molecule Fms-like Tyrosine Kinase 3 Inhibitors: An Attractive and Efficient Method for the Treatment of Acute Myeloid Leukemia” (J Med Chem, 2020).
Blank lines part the entries; values can stand above or below the molecule they belong to.

Experiments:
[1] = biological target: T1, Receptor-type tyrosine-protein kinase FLT3 (Homo sapiens, UniProt P36888, ITD)
[2] = biological target: T2, Aurora kinase A (Homo sapiens, UniProt O14965); test: Inhibition of Aurora-A (unknown origin) by kinase-glo luminescent assay
T2 sequence (O14965 whole entry): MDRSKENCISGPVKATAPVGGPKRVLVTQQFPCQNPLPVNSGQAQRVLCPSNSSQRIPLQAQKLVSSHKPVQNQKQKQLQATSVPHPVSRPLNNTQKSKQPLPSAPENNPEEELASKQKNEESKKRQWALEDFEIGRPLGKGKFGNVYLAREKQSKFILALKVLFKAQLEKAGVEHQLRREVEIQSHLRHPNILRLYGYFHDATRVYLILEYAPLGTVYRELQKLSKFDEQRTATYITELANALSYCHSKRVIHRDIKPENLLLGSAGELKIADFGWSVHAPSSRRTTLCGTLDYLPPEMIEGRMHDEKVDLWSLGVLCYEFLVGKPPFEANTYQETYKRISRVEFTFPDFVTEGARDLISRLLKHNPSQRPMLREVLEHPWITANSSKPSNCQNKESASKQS

[3] = test system: MV4-11; test: Antiproliferative activity against human MV4-11 cells assessed as reduction in cell proliferation measured after 24 hrs by MTT assay; type: functional, cell-based; conditions: MV4-11, 24 h
[4] = biological target: T3, Receptor-type tyrosine-protein kinase FLT3 (Homo sapiens, UniProt P36888); test: Inhibition of FLT3 (unknown origin) autophosphorylation expressed in human Leukemia cells; type: cell-based, Leukemia cell
T3 sequence (P36888 whole entry): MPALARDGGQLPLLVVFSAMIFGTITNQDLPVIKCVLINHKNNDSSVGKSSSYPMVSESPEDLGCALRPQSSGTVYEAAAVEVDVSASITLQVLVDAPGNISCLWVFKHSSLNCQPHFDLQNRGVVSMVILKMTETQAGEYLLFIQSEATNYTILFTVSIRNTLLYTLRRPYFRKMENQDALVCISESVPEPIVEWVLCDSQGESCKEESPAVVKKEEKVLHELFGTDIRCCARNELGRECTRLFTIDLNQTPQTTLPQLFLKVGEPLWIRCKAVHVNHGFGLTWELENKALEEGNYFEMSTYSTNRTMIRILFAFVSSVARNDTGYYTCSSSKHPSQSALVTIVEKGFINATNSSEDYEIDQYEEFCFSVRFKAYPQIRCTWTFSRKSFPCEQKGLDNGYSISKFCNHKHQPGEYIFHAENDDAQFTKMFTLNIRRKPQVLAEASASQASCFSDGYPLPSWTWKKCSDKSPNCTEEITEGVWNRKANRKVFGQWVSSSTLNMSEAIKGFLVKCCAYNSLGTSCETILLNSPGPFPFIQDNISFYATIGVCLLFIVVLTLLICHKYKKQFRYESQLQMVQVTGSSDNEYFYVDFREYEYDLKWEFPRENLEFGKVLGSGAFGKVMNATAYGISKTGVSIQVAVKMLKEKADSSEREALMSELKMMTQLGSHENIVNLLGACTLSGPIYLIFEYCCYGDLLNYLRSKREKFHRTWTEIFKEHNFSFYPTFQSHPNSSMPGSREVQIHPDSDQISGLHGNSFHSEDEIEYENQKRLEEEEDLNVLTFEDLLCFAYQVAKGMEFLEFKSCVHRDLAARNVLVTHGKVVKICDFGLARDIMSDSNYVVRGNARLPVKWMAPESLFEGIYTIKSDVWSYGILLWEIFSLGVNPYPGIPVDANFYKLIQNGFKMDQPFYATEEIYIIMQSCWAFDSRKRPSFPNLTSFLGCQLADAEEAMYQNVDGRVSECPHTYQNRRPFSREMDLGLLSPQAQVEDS

[5] = test system: MV4-11; test: Growth inhibition of human MV4-11 cells incubated for 72 hrs by CCK-8 assay; type: functional
[6] = test system: MOLM-13; test: Growth inhibition of human MOLM-13 cells incubated for 72 hrs by CCK-8 assay; type: functional
[7] = test system: MOLM-14; test: Growth inhibition of human MOLM-14 cells incubated for 72 hrs by CCK-8 assay; type: functional
[8] = biological target: Tyrosine-protein kinase JAK2 (Homo sapiens, UniProt O60674); test: Inhibition of JAK2 (unknown origin) in presence of ATP
[9] = test system: BaF3; test: cells; conditions: Mus musculus, BaF3, 72 h
[10] = test system: MOLM-13; test: cells; conditions: Homo sapiens, MOLM-13, 72 h
[11] = test system: MOLM-14; test: cells; conditions: Homo sapiens, MOLM-14, 72 h
[12] = test system: MV4-11; test: cells; conditions: Homo sapiens, MV4-11, 48 h
Description: Antiproliferative activity against human MV4-11 cells assessed as reduction in cell viability after 48 hrs by Alamar Blue assay

[13] = test system: MOLM-13; test: cells; conditions: Homo sapiens, MOLM-13, 72 h; remark: listed apart in the source
Description: Cytotoxicity against human MOLM-13 cells assessed as reduction in cell viability incubated for 72 hrs

[14] = biological target: T3, Receptor-type tyrosine-protein kinase FLT3; test: Inhibition of FLT3 (unknown origin)
[15] = test system: RS4-11; test: Growth inhibition human RS4-11 cell assessed as reduction in cell viability at 50 uM measured after 72 hrs by CCK8 assay; type: functional
[16] = test system: MV4-11; test: Growth inhibition of human MV4-11 cells assessed as reduction in cell viability at 50 uM measured after 72 hrs by CCK8 assay; type: functional
[17] = biological target: T2, Aurora kinase A; test: Inhibition of Aurora-A (unknown origin)
[18] = test system: MOLM-14; test: Cytotoxicity against human MOLM-14 cells assessed as reduction in cell viability incubated for 72 hrs; type: functional, cell-based; conditions: MOLM-14, 72 h
[19] = test system: 697; test: Cytotoxicity activity against human 697 cells assessed as reduction cell viability at 50 uM incubated for 48 hrs by ATP-glo assay; type: functional, cell-based; conditions: Homo sapiens, 697, 48 h
[20] = Antiproliferative activity against human MOLM16 cells expressing FLT3-ITD mutant assessed as inhibition of cell proliferation measured after 72 hrs by celltiter-glo luminescent cell viability assay; type: functional, cell-based, MOLM-16; conditions: MOLM16, 72 h
[21] = biological target: T3, Receptor-type tyrosine-protein kinase FLT3; test: Inhibition of FLT3 (unknown origin) by ADP-Glo kinase assay
[22] = test system: MOLM-13; test: Antiproliferative activity against human MOLM-13 cells assessed as reduction in cell viability measured after 48 hrs by MTT assay; type: functional, cell-based; conditions: MOLM-13, 48 h
[23] = biological target: T1, Receptor-type tyrosine-protein kinase FLT3; test: Inhibition of FLT3-ITD mutant (unknown origin) expressed in mouse BaF3 cells assessed as inhibition; type: cell-based
[24] = test system: HL-60; test: Growth inhibition of human HL-60 cells incubated for 4 days by WST assay; type: functional; conditions: HL-60, 96 h, time 4 day
[25] = biological target: Receptor-type tyrosine-protein kinase FLT3 (Homo sapiens, UniProt P36888, D835Y); test: Inhibition of FLT3-D835Y mutant (unknown origin)

Chain of Tyrosine-protein kinase JAK2 (O60674 whole entry): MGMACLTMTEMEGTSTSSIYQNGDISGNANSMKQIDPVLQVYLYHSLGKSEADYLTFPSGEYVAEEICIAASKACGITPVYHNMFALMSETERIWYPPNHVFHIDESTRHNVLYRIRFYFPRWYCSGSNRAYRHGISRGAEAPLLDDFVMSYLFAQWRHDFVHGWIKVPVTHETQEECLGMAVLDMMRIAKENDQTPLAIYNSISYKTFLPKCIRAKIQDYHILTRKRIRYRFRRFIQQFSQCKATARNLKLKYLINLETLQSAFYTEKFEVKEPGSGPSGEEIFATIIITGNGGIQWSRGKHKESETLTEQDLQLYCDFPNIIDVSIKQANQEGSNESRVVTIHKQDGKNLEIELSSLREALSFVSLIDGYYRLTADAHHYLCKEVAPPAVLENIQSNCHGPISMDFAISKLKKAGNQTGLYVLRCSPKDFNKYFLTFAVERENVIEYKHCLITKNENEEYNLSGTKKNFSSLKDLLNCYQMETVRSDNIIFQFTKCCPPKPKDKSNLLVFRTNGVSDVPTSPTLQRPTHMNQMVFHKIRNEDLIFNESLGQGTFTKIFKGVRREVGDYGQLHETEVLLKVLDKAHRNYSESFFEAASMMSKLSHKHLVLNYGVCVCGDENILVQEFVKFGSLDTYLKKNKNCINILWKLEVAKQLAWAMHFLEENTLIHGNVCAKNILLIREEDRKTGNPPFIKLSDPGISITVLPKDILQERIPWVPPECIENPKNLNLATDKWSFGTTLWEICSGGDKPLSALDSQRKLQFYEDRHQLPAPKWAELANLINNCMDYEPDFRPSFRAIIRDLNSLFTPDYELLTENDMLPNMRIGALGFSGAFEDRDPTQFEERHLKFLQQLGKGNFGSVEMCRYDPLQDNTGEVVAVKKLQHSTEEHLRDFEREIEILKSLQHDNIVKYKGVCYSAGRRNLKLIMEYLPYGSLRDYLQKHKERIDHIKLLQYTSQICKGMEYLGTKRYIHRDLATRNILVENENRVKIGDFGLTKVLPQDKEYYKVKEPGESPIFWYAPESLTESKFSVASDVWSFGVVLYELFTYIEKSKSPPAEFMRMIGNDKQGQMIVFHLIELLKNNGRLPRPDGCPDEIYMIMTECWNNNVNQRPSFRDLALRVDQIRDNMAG

- IC50 [1]: 0.5 nM
- IC50 [2]: 0.4 nM
SMILES: COc1ccc(C(=O)NC(=O)Nc2ccc3c(c2)NC(=O)/C3=C\c2[nH]c(C)c(C(=O)NCCN3CCCC3)c2C)c(F)c1

- IC50 [3]: < 0.25 nM
- IC50 [4]: 0.1 nM
SMILES: CNC(=O)[C@@]1(N)C[C@H]2O[C@]1(C)n1c3ccccc3c3c4c(c5c6ccccc6n2c5c31)C(=O)NC4

- GI50 [5]: 0.83 nM
- GI50 [6]: 1.1 nM
- GI50 [7]: 1.5 nM
SMILES: CCCNc1nc(Nc2ccc(C#N)cc2)ncc1C#CCCCNC(=O)[C@H](C)N(C)C(=O)/C=C/CN(C)C [FF-10101]

- IC50 [8]: 67.2 nM
SMILES: Cn1c2ccccc2c2c3c(c4c5ccccc5n(CCC#N)c4c21)CNC3=O [GO-6976]

- IC50 [9]: 10 nM
- IC50 [10]: 10 nM
- IC50 [11]: 10 nM
SMILES: COc1cc2c(N3CCN(C(=O)Nc4ccc(OC(C)C)cc4)CC3)ncnc2cc1OCCCN1CCCCC1 [TANDUTINIB]

- IC50 [1]: 5.3 nM
- IC50 [12]: 24.8 nM
- IC50 [13]: 23.6 nM
SMILES: Cc1[nH]c(/C=C2\C(=O)Nc3ccc(F)cc32)c(C)c1NC(=O)[C@@H]1CCCN1

- IC50 [14]: 0.57 nM
- GI50 [15]: 4860 nM
- GI50 [16]: 260 nM
SMILES: O=C(c1ccc(CN2CCCCC2)cc1)N1CCc2nc(-c3cc4cc(F)ccc4[nH]c3=O)[nH]c2C1

- IC50 [1]: 67 nM
- IC50 [17]: 15 nM
- IC50 [12]: 7 nM
- IC50 [13]: 7 nM
SMILES: CC(C)(C)c1cc(NC(=O)Nc2ncc(CCNc3ncnc4[nH]c(-c5ccccc5)cc34)s2)no1

SMILES: CCCCNc1ncc2c(-c3ccc(CN4CCN(C)CC4)cc3)cn([C@H]3CC[C@H](O)CC3)c2n1
- IC50 [18]: 14 nM
- IC50 [19]: 2.7 nM

- IC50 [3]: 12.3 nM
- IC50 [10]: 13 nM
SMILES: C[C@]12O[C@H](C[C@H](O)[C@H]1O)n1c3ccccc3c3c4c(c5c6ccccc6n2c5c31)C(=O)NC4=O
- IC50 [20]: 27 nM

- IC50 [21]: 9 nM
- IC50 [22]: 0.24 nM
- IC50 [23]: 1.1 nM
SMILES: COc1cc2c(Oc3ccc(NC(=O)Nc4cccc(C)c4)cc3F)ccnc2cc1OCCCN1CCOCC1

- GI50 [5]: < 0.3 nM
SMILES: CC(C)(C)c1cc(NC(=O)Nc2ccc(-n3nc(-c4ccc(OCCN5CCOCC5)cc4)c4c(N)ncnc43)cc2)no1

- IC50 [1]: 16 nM
- GI50 [5]: 216 nM
- GI50 [24]: > 10000 nM
- IC50 [25]: 21 nM
SMILES: CC1=CC(=O)N(Nc2nc(-c3cccs3)nc3sc(C)c(C)c23)C1=O
